Counter-ions that a name gives are not always drawn.
For `COc1ccc(CNc2nc(CCC(=O)O)nc3sc4c(c23)CCCC4)cc1Cl` (as salt: salt) [Example 2, 3-[4-(3-chloro-4-methoxybenzylamino)-5,6,7,8-tetrahydro-[1]-benzothieno[2,3-d)pyrimidin-2-yl)propionic acid], which melting point is on record?
The melting point was 135 °C.

With `COc1ccc(CNc2nc(-c3ccc(C(=O)O)cc3)nc3sc4ccccc4c23)cc1Cl` (as salt: salt) [Example 3, 4-[4-(3-chloro-4-methoxybenzylamino)-[1]-benzothieno[2,3-d]-pyrimidin-2-yl]benzoic acid] as the molecule, how does the melting point read?
Its melting point is 189 to 190 °C.

Which melting point does the source give for `CCCc1nn(C)c2c(NCc3ccc(OC)c(Cl)c3)nc(-c3ccc(C(=O)O)cc3)nc12` (as salt: salt) [Example 3, 4-[7-(3-chloro-4-methoxybenzylamino]-methyl-3-propyl-1H-pyrazolo-[4,3-d]pyrimidin-5-yl]benzoic acid] here?
Its melting point is 139 °C.

Which melting point does the source give for `COc1ccc(CNc2nc(CCC(=O)O)nc3sc4c(c23)CCCC4)cc1Cl` [Example 2, 3-[4-(3-chloro-4-methoxybenzylamino)-5,6,7,8-tetrahydro-[1]-benzothieno[2,3-d)pyrimidin-2-yl)propionic acid] here?
Its melting point is 229 °C.

Which melting point does the source give for `CCCc1nn(C)c2c(NCc3ccc(OC)c(Cl)c3)nc(CCC(=O)O)nc12` [Example 2, 3-[7-(3-chloro-4-methoxybenzylamino)-1-methyl-3-propyl-1H-pyrazolo-[4,3-d]pyrimidin-5-yl]propionic acid] here?
The melting point was 178 °C.

— patent publication US20040063731A1, “Pharmaceutical formulation comprising pyrazolo[4,3-d]pyrimidines and endothelin receptor antagonists or thienopyrimidines and endothelin receptor antagonists” (priority 2001, published 2004)
